Measured values from US20100221502A1, “Anthrapyridone Compound and Salt Thereof, Magenta Ink Composition Containing the Anthrapyridone Compound, and Colored Article” (priority 2005, published 2010).

Experiments:
Type in all cases: physicochemical
[1] = Evaluation of hue on glossy paper (L*, a*, b*, C* of inkjet recorded image); design: key to Lightness L*: CIELAB L* lightness value; key to Chromaticity a*: CIELAB a* chromaticity value; key to Chromaticity b*: CIELAB b* chromaticity value; details: for Chroma C*: C*=((a*)^2+(b*)^2)^1/2; for Chromaticity a* / Chromaticity b* / Lightness L*: ink with 6.0 parts compound
Description: The compound (Compound Example No. 1) obtained in the above Example 1 was used to prepare a solution of the composition shown in the following Table 2, which was filtrated with a 0.45 μm membrane filter for removing insoluble matter to obtain each water-based ink composition for inkjet recording. And ion-exchanged water was used as water. In addition, the pH of the ink composition was adjusted to pH=8 to 10 with a 25% caustic soda aqueous solution, and water was further added so that the whole weight was 100 parts. Example 5 is the test using the compound obtained in Example 1.
(§1) Using an ink jet printer (manufactured by Canon Inc., trade name: Pixus 860i), inkjet recording was performed on glossy paper (manufactured by Canon Inc., trade name: Professional Photo Paper PR-101) having an ink image-receiving layer containing porous white inorganic substance and photo paper (glossy) manufactured by SEIKO-EPSON CORPORATION. In inkjet recording, an image pattern was made to obtain gradations of several stages in printing density and a print was made.
For the hue and vividness of recorded image, printed recording paper was measured using a Color Calibration Systems (trade name: GRETAG SPM50, manufactured by GretagMacbeth AG) to calculate values of L*, a* and b*, and chroma (C*) showing vividness was calculated from chromaticity (a*, b*) by C*=((a*)^2+(b*)^2)^1/2. The hue was evaluated by comparing with a sample of standard magenta in Japan Color manufactured by JPMA (Industry Association: Japan Printing Machinery Association).
In this connection, paper used for standard magenta in Japan Color was Japan Color Standard Paper.

[2] = Moisture fastness test of recorded image; design: key: ∘: Bleed is not observed.; Δ: Bleed is observed on small degree.; ×: Bleed is observed on large degree; details: 168 hours, 30° C., 85% RH, bleed by visual observation
Experimental: as §1
Using a thermo-hygrostat (manufactured by OHKEN, Co., LTD), pieces of printed testing paper of glossy paper manufactured by Canon, Inc. and glossy paper manufactured by SEIKO-EPSON CORPORATION were left for 168 hours at a temperature of 30° C. and a humidity of 85% RH. Bleed property before and after the test was determined by visual observation and evaluated on 3 levels.
∘: Bleed is not observed.
Δ: Bleed is observed on small degree.
×: Bleed is observed on large degree.

[3] = Xenon light fastness test of recorded image; details: any of glossy papers of CANON INC. and SEIKO-EPSON CORPORATION
Experimental: as §1
Using a xenon weatherometer Ci4000 (manufactured by ATLAS Electric Devices Co.), pieces of printed testing paper of glossy paper manufactured by Canon, Inc. and glossy paper manufactured by SEIKO-EPSON CORPORATION, on which an air layer was provided and a glass plate having a thickness of 2 mm was set up, were irradiated for 50 hours at an illuminance of 0.36 W/m^2 under the circumstances of a humidity of 60% RH and a temperature of 24° C. Color difference (ΔE) before and after the test was measured and the evaluation was performed on 3 levels.

[4] = Ozone gas fastness test of recorded image; details: any of glossy papers of CANON INC. and SEIKO-EPSON CORPORATION
Experimental: Using an ink jet printer (manufactured by Canon Inc., trade name: Pixus 860i), inkjet recording was performed on glossy paper (manufactured by Canon Inc., trade name: Professional Photo Paper PR-101) having an ink image-receiving layer containing porous white inorganic substance and photo paper (glossy) manufactured by SEIKO-EPSON CORPORATION. In inkjet recording, an image pattern was made to obtain gradations of several stages in printing density and a print was made. Using an ozone weatherometer (manufactured by Suga Test Instruments Co., Ltd.), pieces of printed testing paper of glossy paper manufactured by Canon, Inc. and glossy paper manufactured by SEIKO-EPSON CORPORATION were left for 3 hours under the circumstances of an ozone concentration of 12 ppm, a humidity of 60% RH and a temperature of 24° C. Color difference (ΔE) before and after the test was measured and evaluation was performed on 3 levels. [formula] [formula] [formula]

[5] = Glossy paper manufactured by Canon Inc.
[6] = Glossy paper manufactured by SEIKO-EPSON CORPORATION
[7] = Glossy paper manufactured by CANON INC.

| Structure (SMILES) | Chroma C* [1, 5] | Chromaticity a* [1, 5] | Chromaticity b* [1, 5] | Lightness L* [1, 5] | Chroma C* [1, 6] | Chromaticity a* [1, 6] | Chromaticity b* [1, 6] | Lightness L* [1, 6] | Moisture fastness [2, 7] | Moisture fastness [2, 6] | Light fastness (in words) [3] | Ozone gas fastness (in words) [4] |
| --- | --- | --- | --- | --- | --- | --- | --- | --- | --- | --- | --- | --- |
| O=C(O)c1cc(Nc2nc(O)nc(Nc3cc(Nc4cc(Oc5ccc(-c6ccc(S(=O)(=O)O)cc6)cc5S(=O)(=O)O)c5[nH]c(=O)c(C(=O)c6cccc(S(=O)(=O)O)c6)c6c5c4C(=O)c4ccccc4-6)c(S(=O)(=O)O)cc3S(=O)(=O)O)n2)cc(C(=O)O)c1 [Example 7 (No. 11)] | 78.6 | 78.7 | 1.0 | 54.8 | 77.6 | 77.4 | −2.6 | 57.2 | ∘ | ∘ |  |  |
| O=C(O)c1ccccc1Nc1nc(O)nc(Nc2cc(Nc3cc(Oc4ccc(-c5ccc(S(=O)(=O)O)cc5)cc4S(=O)(=O)O)c4[nH]c(=O)c(C(=O)c5cccc(S(=O)(=O)O)c5)c5c4c3C(=O)c3ccccc3-5)c(S(=O)(=O)O)cc2S(=O)(=O)O)n1 [Example 6 (No. 8)] | 82.1 | 82.1 | 0.5 | 55.4 | 80.5 | 80.6 | −2.2 | 56.1 | ∘ | ∘ |  |  |
| Cn1c(=O)cc2c3c(c(Nc4cc(Nc5nc(O)nc(Nc6cc(S(=O)(=O)O)ccc6S(=O)(=O)O)n5)ccc4S(=O)(=O)O)ccc31)C(=O)c1ccccc1-2 [Comparative Example 1, reference compound] | 81.3 | 81.0 | −6.7 | 49.8 | 80.4 | 79.9 | −9.5 | 49.5 | ∘ | ∘ | has a problem in light fastness | a drawback in ozone gas fastness |
| O=C(c1cccc(S(=O)(=O)O)c1)c1c2c3c(c(Nc4cc(Nc5nc(O)nc(Nc6ccccc6S(=O)(=O)O)n5)c(S(=O)(=O)O)cc4S(=O)(=O)O)cc(Oc4ccc(-c5ccc(S(=O)(=O)O)cc5)cc4S(=O)(=O)O)c3[nH]c1=O)C(=O)c1ccccc1-2 [Example 5 (No. 1)] | 88.2 | 88.2 | −2.9 | 57.8 | 82.3 | 82.3 | −1.7 | 56.1 | ∘ | ∘ |  |  |
